Source: PubChem BioAssay AID330 (DTP/NCI, 2004)
Several values for one entry are separate records, joined by “and”; a condition that tells them apart may be missing. Equal values may be shown once. Toxic doses and inconclusive results are not listed. Rule for the calls: active = survival T/C of 150% or more; inactive = T/C below 125% in these data.

Tested on: P388 leukemia ip, CD2F1 mice, survival T/C
Test: NCI In Vivo Anticancer Drug Screen. Data for tumor model P388 Leukemia (intraperitoneal) in CD2F1 (CDF1) mice
Settings: endpoint: median survival time, higher = longer survival
Outline: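 Mice carrying the transplanted tumor received test compound or vehicle. Survival was recorded in each group, and the value is the treated-group measurement divided by that of the vehicle-treated control group.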

[1] = dose: 60.0 mg/kg/injection, schedule: Q01DX005 (ip), vehicle: saline
[2] = dose: 120.0 mg/kg/injection, schedule: Q01DX005 (ip), vehicle: saline
[3] = dose: 3.12 mg/kg/injection, schedule: Q01DX009 (ip), vehicle: Klucel (hydroxypropylcellulose) (HPC)
[4] = dose: 6.25 mg/kg/injection, schedule: Q01DX009 (ip), vehicle: Klucel (hydroxypropylcellulose) (HPC)
[5] = dose: 50.0 mg/kg/injection, schedule: Q01DX005 (ip), vehicle: saline with Tween-80
[6] = dose: 100.0 mg/kg/injection, schedule: Q01DX005 (ip), vehicle: saline with Tween-80
[7] = dose: 200.0 mg/kg/injection, schedule: Q01DX005 (ip), vehicle: saline with Tween-80
[8] = dose: 3.13 mg/kg/injection, schedule: Q01DX009 (ip), vehicle: saline with Tween-80
[9] = dose: 6.25 mg/kg/injection, schedule: Q01DX009 (ip), vehicle: saline with Tween-80
[10] = dose: 25.0 mg/kg/injection, schedule: Q01DX009 (ip), vehicle: saline with Tween-80
[11] = dose: 50.0 mg/kg/injection, schedule: Q01DX009 (ip), vehicle: saline with Tween-80
[12] = dose: 100.0 mg/kg/injection, schedule: Q01DX009 (ip), vehicle: saline with Tween-80
[13] = dose: 50.0 mg/kg/injection, schedule: Q01DX005 (ip), vehicle: Klucel (hydroxypropylcellulose) (HPC)
[14] = dose: 100.0 mg/kg/injection, schedule: Q01DX005 (ip), vehicle: Klucel (hydroxypropylcellulose) (HPC)

Measured: T/C

CCCOc1ccc(C#N)cc1
inactive: dose: 50.0 mg/kg/injection, schedule: Q01DX009 (ip), vehicle: Klucel (hydroxypropylcellulose) (HPC) 102 % of control | dose: 100.0 mg/kg/injection, schedule: Q01DX009 (ip), vehicle: Klucel (hydroxypropylcellulose) (HPC) 108 % of control | dose: 200.0 mg/kg/injection, schedule: Q01DX009 (ip), vehicle: Klucel (hydroxypropylcellulose) (HPC) 99 % of control

Cc1cccc(Cl)c1NC(=O)CN(C)CCN1CCCC1
inactive: [1] 103 % of control | [2] 110 % of control

N#CC(C#N)=NNc1c(Br)cc(Cl)cc1Br
inactive: dose: 1.56 mg/kg/injection, schedule: Q01DX009 (ip), vehicle: Klucel (hydroxypropylcellulose) (HPC) 104 % of control | [3] 105 % of control | [4] 116 % of control and 97 % of control

CCC(C)(C(=O)Nc1ccc2nc(C)cc(N)c2c1)C(=O)Nc1ccc2nc(C)cc(N)c2c1
inactive: [5] 87 % of control | [6] 96 % of control | [7] 100 % of control

O=C(O)c1ccccc1.O=C(O)c1ccccc1.O=C(O)c1ccccc1.O=C(O)c1ccccc1.[Cu].[Cu]
inactive: dose: 7.5 mg/kg/injection, schedule: Q01DX005 (ip), vehicle: Klucel (hydroxypropylcellulose) (HPC) 99 % of control | dose: 15.0 mg/kg/injection, schedule: Q01DX005 (ip), vehicle: Klucel (hydroxypropylcellulose) (HPC) 97 % of control

Oc1c(-c2ccccc2)nc2cnccn12
inactive: dose: 60.0 mg/kg/injection, schedule: Q01DX005 (ip), vehicle: saline with Tween-80 100 % of control | dose: 120.0 mg/kg/injection, schedule: Q01DX005 (ip), vehicle: saline with Tween-80 107 % of control | dose: 240.0 mg/kg/injection, schedule: Q01DX005 (ip), vehicle: saline with Tween-80 107 % of control

CCC(=O)NC1=C(Cl)C(=O)C(Cl)=C(Cl)C1=O
inactive: [8] 111 % of control | [9] 103 % of control

CC(C(=O)c1ccc(O)cc1)(c1nc2nnc(N)n2[nH]c1=O)c1nc2nnc(N)n2[nH]c1=O
inactive: [1] 98 % of control | [2] 98 % of control | dose: 240.0 mg/kg/injection, schedule: Q01DX005 (ip), vehicle: saline 97 % of control

CSc1nc2ccc(N3C(=O)C=CC3=O)cc2s1
inactive: [3] 102 % of control | [4] 105 % of control | dose: 12.5 mg/kg/injection, schedule: Q01DX009 (ip), vehicle: Klucel (hydroxypropylcellulose) (HPC) 101 % of control

Cc1cccc(O)c1C(=O)OC(C)c1cccc2nc3c(C(=O)O)cccc3nc12 (configuration not stated)
inactive: dose: 0.5 mg/kg/injection, schedule: Q01DX005 (ip), vehicle: DMSO 108 % of control | dose: 1.0 mg/kg/injection, schedule: Q01DX005 (ip), vehicle: DMSO 92 % of control | dose: 2.0 mg/kg/injection, schedule: Q01DX005 (ip), vehicle: DMSO 100 % of control | dose: 4.0 mg/kg/injection, schedule: Q01DX005 (ip), vehicle: Klucel (hydroxypropylcellulose) (HPC) 100 % of control | dose: 6.25 mg/kg/injection, schedule: Q01DX005 (ip), vehicle: DMSO 119 % of control | dose: 8.0 mg/kg/injection, schedule: Q01DX005 (ip), vehicle: Klucel (hydroxypropylcellulose) (HPC) 101 % of control | dose: 12.5 mg/kg/injection, schedule: Q01DX005 (ip), vehicle: DMSO 114 % of control | dose: 16.0 mg/kg/injection, schedule: Q01DX005 (ip), vehicle: Klucel (hydroxypropylcellulose) (HPC) 101 % of control | dose: 32.0 mg/kg/injection, schedule: Q01DX005 (ip), vehicle: Klucel (hydroxypropylcellulose) (HPC) 87 % of control

COc1ccc(-c2coc3cc(OC4OC(COC5OC(CO)C(O)C(O)C5O)C(O)C(O)C4O)cc(O)c3c2=O)cc1 (configuration not stated)
inactive: [10] 101 % of control | [11] 98 % of control | [12] 93 % of control

CCCCc1ccc(C(N)=O)nc1
inactive: [13] 104 % of control | [14] 99 % of control

COCCOC(=O)NCP(Cl)(CNC(=O)OCCOC)(CNC(=O)OCCOC)CNC(=O)OCCOC
inactive: dose: 50.0 mg/kg/injection, schedule: Q01DX009 (ip), vehicle: saline 100 % of control | dose: 100.0 mg/kg/injection, schedule: Q01DX009 (ip), vehicle: saline 99 % of control | dose: 200.0 mg/kg/injection, schedule: Q01DX009 (ip), vehicle: saline 105 % of control

COc1nc(N)nc2c1CSc1ccccc1-2
inactive: [13] 97 % of control | [14] 97 % of control | dose: 200.0 mg/kg/injection, schedule: Q01DX005 (ip), vehicle: Klucel (hydroxypropylcellulose) (HPC) 90 % of control

COc1ccc2c(c1OC(=O)NCCCl)-c1cccc3c1C(C2)N(CCOC(=O)NCCCl)CC3 (configuration not stated)
inactive: dose: 6.25 mg/kg/injection, schedule: Q04DX003 (ip), vehicle: saline + alcohol 109 % of control | dose: 12.5 mg/kg/injection, schedule: Q04DX003 (ip), vehicle: saline + alcohol 102 % of control | dose: 25.0 mg/kg/injection, schedule: Q04DX003 (ip), vehicle: saline + alcohol 96 % of control | dose: 50.0 mg/kg/injection, schedule: Q04DX003 (ip), vehicle: saline + alcohol 106 % of control | dose: 100.0 mg/kg/injection, schedule: Q04DX003 (ip), vehicle: saline + alcohol 98 % of control | dose: 200.0 mg/kg/injection, schedule: Q04DX003 (ip), vehicle: saline + alcohol 105 % of control

CCCCc1c(C(=O)OCC)oc(C(=O)OCC)c(CCCC)c1=O
inactive: dose: 12.5 mg/kg/injection, schedule: Q04DX003 (ip), vehicle: Klucel (hydroxypropylcellulose) (HPC) 108 % of control | dose: 25.0 mg/kg/injection, schedule: Q04DX003 (ip), vehicle: Klucel (hydroxypropylcellulose) (HPC) 104 % of control | dose: 50.0 mg/kg/injection, schedule: Q04DX003 (ip), vehicle: Klucel (hydroxypropylcellulose) (HPC) 103 % of control | dose: 100.0 mg/kg/injection, schedule: Q04DX003 (ip), vehicle: Klucel (hydroxypropylcellulose) (HPC) 100 % of control | dose: 200.0 mg/kg/injection, schedule: Q04DX003 (ip), vehicle: Klucel (hydroxypropylcellulose) (HPC) 104 % of control | dose: 400.0 mg/kg/injection, schedule: Q04DX003 (ip), vehicle: Klucel (hydroxypropylcellulose) (HPC) 106 % of control

CC(=O)Nc1cc(C)ccc1O
inactive: [12] 95 % of control | dose: 200.0 mg/kg/injection, schedule: Q01DX009 (ip), vehicle: saline with Tween-80 100 % of control | dose: 400.0 mg/kg/injection, schedule: Q01DX009 (ip), vehicle: saline with Tween-80 95 % of control

CC(CN(C)C)Oc1ccccc1NC1=C(Cl)C(=O)C(Nc2ccccc2OC(C)CN(C)C)=C(Cl)C1=O (configuration not stated)
inactive: dose: 10.0 mg/kg/injection, schedule: Q01DX009 (ip), vehicle: saline 108 % of control and 115 % of control | dose: 20.0 mg/kg/injection, schedule: Q01DX009 (ip), vehicle: saline 115 % of control and 118 % of control

CCN(CC)CCOc1ccc(/C(=C(\Cl)c2ccccc2)c2ccccc2)cc1
inactive: [8] 96 % of control | [9] 119 % of control | dose: 12.5 mg/kg/injection, schedule: Q01DX009 (ip), vehicle: saline with Tween-80 117 % of control | [10] 122 % of control | [5] 93 % of control | [11] 104 % of control | [6] 96 % of control | [7] 93 % of control

NC(=O)CC1(C(=O)O)c2ccccc2-c2ccccc21
inactive: dose: 100.0 mg/kg/injection, schedule: Q04DX003 (ip), vehicle: saline with Tween-80 97 % of control | dose: 200.0 mg/kg/injection, schedule: Q04DX003 (ip), vehicle: saline with Tween-80 97 % of control | dose: 400.0 mg/kg/injection, schedule: Q04DX003 (ip), vehicle: saline with Tween-80 108 % of control
